ChEMBL document CHEMBL3603778, “Exploration on natural product anibamine side chain modification toward development of novel CCR5 antagonists and potential anti-prostate cancer agents” (Bioorg Med Chem Lett, 2015)
pIC50: −log10 of the molar value.

What was measured:
[1] = target: C-C chemokine receptor type 5 (Homo sapiens, UniProt P51681); test: Antagonist activity at CCR5 (unknown origin) expressed in human MOLT4 cells assessed as inhibition of CCL5-induced calcium mobilization after 1 hr; assay type: functional, cell-based, MOLT-4
[2] = Antiproliferative activity against human M12 cells after 72 hrs by WST1 assay; assay type: functional, cell-based; conditions: M12, 72 h
PC-3 = test: Antiproliferative activity against human PC3 cells after 72 hrs by WST1 assay; assay type: functional, cell-based; conditions: PC-3, 72 h
[3] = Cytotoxicity against mouse NIH/3T3 cells after 72 hrs by WST1 assay; assay type: cell-based, NIH3T3; conditions: read-out: TC50

Chain of C-C chemokine receptor type 5 (P51681 whole entry): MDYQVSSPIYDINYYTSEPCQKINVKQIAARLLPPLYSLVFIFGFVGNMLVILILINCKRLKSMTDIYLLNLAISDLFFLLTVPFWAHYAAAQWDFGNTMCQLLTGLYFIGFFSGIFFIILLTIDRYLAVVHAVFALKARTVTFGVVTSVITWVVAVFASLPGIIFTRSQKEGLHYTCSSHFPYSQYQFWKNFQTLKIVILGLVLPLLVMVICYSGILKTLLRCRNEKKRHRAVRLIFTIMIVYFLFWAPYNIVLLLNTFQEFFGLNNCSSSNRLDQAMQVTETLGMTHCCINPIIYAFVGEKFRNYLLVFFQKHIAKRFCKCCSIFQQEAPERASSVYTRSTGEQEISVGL

`Cc1c(CNC(=O)c2ccc(C(C)C)cc2)c(C)[n+]2c(c1CNC(=O)c1ccc(C(C)C)cc1)CCC2` gave a pIC50 [1] of 4.57, a pIC50 [2] of 3.92 and a pIC50 (PC-3) of 3.77. It also gave a CC50 at 72 h [3] of 270 µM.

Work on `Cc1c(CNC(=O)c2ccc(C(C)(C)C)cc2)c(C)[n+]2c(c1CNC(=O)c1ccc(C(C)(C)C)cc1)CCC2` yielded a pIC50 [1] of 4.52, a pIC50 [2] of 4.22 and a pIC50 (PC-3) of 4.51. The CC50 at 72 h [3] was 83.2 µM.

In the case of `Cc1c(CNC(=O)c2ccccc2)c(C)[n+]2c(c1CNC(=O)c1ccccc1)CCC2`, the pIC50 [1] was 5.87, the pIC50 [2] was 3.55 and the pIC50 (PC-3) was 3.29. It also gave a CC50 at 72 h [3] of 212 µM.

With `Cc1c(CNC(=O)c2ccc(-c3ccccc3)cc2)c(C)[n+]2c(c1CNC(=O)c1ccc(-c3ccccc3)cc1)CCC2` the pIC50 [1] was 4.76, the pIC50 [2] was 4.31 and the pIC50 (PC-3) was 4.33. It also gave a CC50 at 72 h [3] of 228 µM.

`Cc1c(CNC(=O)c2ccc(Br)cc2)c(C)[n+]2c(c1CNC(=O)c1ccc(Br)cc1)CCC2` showed a pIC50 [1] of 4.41, a pIC50 [2] of 4.04 and a pIC50 (PC-3) of 3.83. For the same compound, the CC50 at 72 h [3] was 182 µM.

Work on `Cc1c(CNC(=O)c2ccc([N+](=O)[O-])cc2)c(C)[n+]2c(c1CNC(=O)c1ccc([N+](=O)[O-])cc1)CCC2` yielded a pIC50 [1] of 4.17, a pIC50 [2] of 3.79 and a pIC50 (PC-3) of under 3.52.

`COc1ccc(C(=O)NCc2c(C)c(CNC(=O)c3ccc(OC)cc3)c3[n+](c2C)CCC3)cc1` showed a pIC50 [1] of 4.16, a pIC50 [2] of 3.90 and a pIC50 (PC-3) of 3.81.

`CCc1ccc(C(=O)NCc2c(C)c(CNC(=O)c3ccc(CC)cc3)c3[n+](c2C)CCC3)cc1` gave a pIC50 [1] of 4.62, a pIC50 [2] of 3.77 and a pIC50 (PC-3) of 3.79.

In the case of `Cc1c(CNC(=O)c2ccc(F)cc2)c(C)[n+]2c(c1CNC(=O)c1ccc(F)cc1)CCC2`, the pIC50 [1] was 4.09.

In the case of `Cc1c(CNC(=O)c2ccc3ccccc3c2)c(C)[n+]2c(c1CNC(=O)c1ccc3ccccc3c1)CCC2`, the pIC50 [1] was 4.90, the pIC50 [2] was 3.72 and the pIC50 (PC-3) was 3.99.

For `Cc1c(CNC(=O)c2ccc(Cl)cc2)c(C)[n+]2c(c1CNC(=O)c1ccc(Cl)cc1)CCC2`, the pIC50 [1] was 4.34, the pIC50 [2] was 3.87 and the pIC50 (PC-3) was 3.75. For the same compound, the CC50 at 72 h [3] was 263 µM.

`CSc1ccc(C(=O)NCc2c(C)c(CNC(=O)c3ccc(SC)cc3)c3[n+](c2C)CCC3)cc1` showed a pIC50 [2] of 3.60 and a pIC50 (PC-3) of 3.99.

`Cc1ccc(C(=O)NCc2c(C)c(CNC(=O)c3ccc(C)cc3)c3[n+](c2C)CCC3)cc1` gave a pIC50 [1] of 4.73, a pIC50 [2] of 3.73 and a pIC50 (PC-3) of 3.61.

With `Cc1c(CNC(=O)c2ccc(N)cc2)c(C)[n+]2c(c1CNC(=O)c1ccc(N)cc1)CCC2` the pIC50 [1] was 3.76.

With `Cc1c(CNC(=O)c2ccc(C(F)(F)F)cc2)c(C)[n+]2c(c1CNC(=O)c1ccc(C(F)(F)F)cc1)CCC2` the pIC50 [1] was 3.92.

In the case of `Cc1c(CNC(=O)c2ccc(C3CCCCC3)cc2)c(C)[n+]2c(c1CNC(=O)c1ccc(C3CCCCC3)cc1)CCC2`, the pIC50 [1] was 4.89, the pIC50 [2] was 4.68 and the pIC50 (PC-3) was 4.26. The CC50 at 72 h [3] was 43.4 µM.

For `Cc1c(CNC(=O)c2ccc(C#N)cc2)c(C)[n+]2c(c1CNC(=O)c1ccc(C#N)cc1)CCC2`, the pIC50 [1] was 3.99.
